One block for each compound: values may come before it.
What was measured:
[1] = target: T1, MAO-A (Rattus norvegicus, UniProt P21396); test: Inhibitory effect against MAO-A activity of cerebral mitochondrial fraction from rat (in vitro); format: biochemical; settings: 10^-7 M test compound, serotonin substrate, read-out: Inhibitory rate (%) against MAO-A activity
T1 construct: mitochondorial fraction obtained from cerebral tissue of rats; from tissue; host or cells: rat cerebral tissue, mitochondrial fraction
T1 sequence (P21396 1-526): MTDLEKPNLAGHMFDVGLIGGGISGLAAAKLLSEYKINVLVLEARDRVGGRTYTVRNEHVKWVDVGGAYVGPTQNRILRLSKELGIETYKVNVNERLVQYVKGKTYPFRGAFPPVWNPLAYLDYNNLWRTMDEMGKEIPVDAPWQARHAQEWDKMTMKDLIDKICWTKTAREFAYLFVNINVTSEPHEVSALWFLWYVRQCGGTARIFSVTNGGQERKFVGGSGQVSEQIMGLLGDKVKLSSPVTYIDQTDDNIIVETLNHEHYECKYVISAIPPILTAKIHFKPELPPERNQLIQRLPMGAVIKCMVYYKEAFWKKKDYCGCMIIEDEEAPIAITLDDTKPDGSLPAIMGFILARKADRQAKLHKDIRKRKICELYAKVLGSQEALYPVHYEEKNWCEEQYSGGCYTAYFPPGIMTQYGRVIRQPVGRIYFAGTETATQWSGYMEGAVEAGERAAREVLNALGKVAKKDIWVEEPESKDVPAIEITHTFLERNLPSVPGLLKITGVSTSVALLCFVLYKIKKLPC
Experimental: Inhibitory effect against MAO-A activity of cerebral mitochondorian fraction from rat (in vitro)
(§1) A suspension (7mg protein/ml) of mitochondorial fraction obtained from cerebral tissue of rats in a conventional manner was used as a sample of enzyme, and serotonin was used as the substrate. of MAO-A. The MAO-A activity was estimated in terms of the amount of ammonia produced from serotonin by the enzymatic reaction.
Inhibitory rate of the test compounds (10^-7 M) against the MAO-A activity was calculated according to the following equation. [formula] NH3 (T): the amount of NH3 in test tube (addtion of test compound) NH3 (C): the amount of NH3 in control tube (no addition of test compound)

[2] = system: cerebral MAO-A; test: Inhibitory effect against cerebral MAO-A activity in mouse (oral administration); format: in vivo; settings: 30 mg/kg oral, brain excised 45 minutes after administration, serotonin substrate
Experimental: as §1
(§2) Inhibitory effect against cerebral MAO-A and MAO-B activity in mouse.
(§3) A test compound (30 mg/kg) suspended in 0.5% aqueous sodium carboxymethylcellulose (CMC-Na) solution was administered orally to a group of 3 mice. The brain was excised 45 minutes after the administration. A control group was administered with the 0.5% aqueous CMC-Na solution alone.
(§4) The brain tissue was homogenized in 9 volumes of ice-cold distilled water and the homogenate was used as enzyme. MAO-A activity was estimated in the same manner as described in Experiment 1, whereas MAO-B activity was estimated in terms of the amount of benzaldehyde formed from benzylamine according to the method as described in "The Journal of Laboratory and Clinical Medicine, vol.

[3] = system: cerebral MAO-B; test: Inhibitory effect against cerebral MAO-B activity in mouse (oral administration); format: in vivo; settings: 30 mg/kg oral, brain excised 45 minutes after administration, benzylamine substrate
Experimental: as §2, §3, §4
Inhibitory rate of the test compound against the MAO-B activity are calculated according to the following equation. [formula] BA(T): the amount of benzaldehyde in the medicated group BA(C): the amount of benzaldehyde in the non-medicated control group

[4] = system: mice; test: Acute oral toxicity in mice; format: in vivo, mouse; settings: 2g/kg orally, 2 week-observation period
Source text: The naphthyloxazolidone derivative (I)or a pharmaceutically acceptable salt thereof has excellent reversible and selective MAO-A inhibitory activity. Accordingly, the compound (I) or a pharmaceutically acceptable salt thereof is useful as a therapeutic or prophylactic agent for depressive conditions such as depression, senile depression, abulia, axiety, insomnia, anorexia and the like in warm-blood animals including human beings. […] Moreover, the compound (I) or a pharmaceutically acceptable salt thereof is low in toxicity and have high safety as a pharmaceuticals. For example, when 3-(6-cyanoethoxy-2-naphthyl)-5-methoxymethyl-2-oxazolidone was administered orally to mice at a dose of 2g/kg, no mice died during 2 week-observation period.

- inhibition at 0.1 µM [1]: 78.4%
SMILES: COCC1CN(c2ccc3ccccc3c2)C(=O)O1 (centres unmarked) [H, 5-methoxymethyl-3-(2-naphthyl)-2-oxazolidone]

- inhibition at 0.1 µM [1]: 95.5%
SMILES: COCC1CN(c2ccc3cc(OCCCC#N)ccc3c2)C(=O)O1 (centres unmarked) [O(CH2)3 CN]
- Inhibitory rate (%) MAO-A [2]: 99.8 ± 16.1%
- Inhibitory rate (%) MAO-B [3]: -1.9 ± 4.8%

- inhibition at 0.1 µM [1]: 96.8%
SMILES: C=CCOc1ccc2cc(N3CC(COC)OC3=O)ccc2c1 (centres unmarked) [OCH2 CHCH2]

- inhibition at 0.1 µM [1]: 76.6%
SMILES: COCC1CN(c2ccc3cc(OC(C)=O)ccc3c2)C(=O)O1 (centres unmarked) [OCOCH3, 3-(6-acetyloxy-2-naphthyl)-5-methoxymethyl-2-oxazolidone]
- Inhibitory rate (%) MAO-A [2]: 56.4 ± 7.4%
- Inhibitory rate (%) MAO-B [3]: -3.1 ± 1.8%

The remaining lines, values behind:

SMILES: COCC1CN(c2ccc3cc(OCC4CC4)ccc3c2)C(=O)O1 (centres unmarked)
- inhibition at 0.1 µM [1]: 93.5%
- Inhibitory rate (%) MAO-A [2]: 71.4 ± 4.3%
- Inhibitory rate (%) MAO-B [3]: -4.5 ± 5.9%

SMILES: COCC1CN(c2ccc3cc(OCCC#N)ccc3c2)C(=O)O1 (centres unmarked) [O(CH2)2 CN, 3-(6-cyanoethoxy-2-naphthyl)-5-methoxymethyl-2-oxazolidone]
- inhibition at 0.1 µM [1]: 98.1%
- Inhibitory rate (%) MAO-A [2]: 109.2 ± 3.5%
- Inhibitory rate (%) MAO-B [3]: -1.0 ± 2.3%
- mortality [4]: no mice died

SMILES: COCC1CN(c2ccc3cc(OCCCO)ccc3c2)C(=O)O1 (centres unmarked) [O(CH2)3 OH]
- inhibition at 0.1 µM [1]: 91.7%
- Inhibitory rate (%) MAO-A [2]: 57.1 ± 4.3%
- Inhibitory rate (%) MAO-B [3]: 1.0 ± 0.8%

SMILES: COCC1CN(c2ccc3cc(OC(C)C)ccc3c2)C(=O)O1 (centres unmarked) [OCH(CH3)2]
- inhibition at 0.1 µM [1]: 98.8%
- Inhibitory rate (%) MAO-A [2]: 86.8 ± 5.4%
- Inhibitory rate (%) MAO-B [3]: 3.6 ± 5.3%

SMILES: C#CCN(C)Cc1ccccc1 [pargyline, reference compound]
- Inhibitory rate (%) MAO-A [2]: 42.0 ± 2.4%
- Inhibitory rate (%) MAO-B [3]: 98.3 ± 5.9%

— US5332754A, “Naphthyloxazolidone derivatives” (Tanabe Seiyaku Co., Ltd., priority 1989, dated 1994)
